Data published in patent US4598084A, “Optically active derivatives of N-arylated oxazolidine-2-one, the process for preparing same and their application in therapeutics” (Delalande S.A., priority 1982, dated 1986).
Read-outs that look alike come from different tables or passages of the source.

Assays:
[1] = target: T1, type A monoamine oxidase (MAO.A) (Rattus norvegicus, UniProt P21396); assay: in vitro MAO.A inhibition on homogenized rat brain, serotonine (5-HT) substrate; type: biochemical, rats; settings: Table 1, rat brain homogenate, read-out: MAO.A inhibition effect (5-HT) IC 50
T1 construct: the brains being removed, weighed, homogeneized; from tissue; host or cells: brain of orally dosed rats, homogenized
T1 sequence (P21396 1-526): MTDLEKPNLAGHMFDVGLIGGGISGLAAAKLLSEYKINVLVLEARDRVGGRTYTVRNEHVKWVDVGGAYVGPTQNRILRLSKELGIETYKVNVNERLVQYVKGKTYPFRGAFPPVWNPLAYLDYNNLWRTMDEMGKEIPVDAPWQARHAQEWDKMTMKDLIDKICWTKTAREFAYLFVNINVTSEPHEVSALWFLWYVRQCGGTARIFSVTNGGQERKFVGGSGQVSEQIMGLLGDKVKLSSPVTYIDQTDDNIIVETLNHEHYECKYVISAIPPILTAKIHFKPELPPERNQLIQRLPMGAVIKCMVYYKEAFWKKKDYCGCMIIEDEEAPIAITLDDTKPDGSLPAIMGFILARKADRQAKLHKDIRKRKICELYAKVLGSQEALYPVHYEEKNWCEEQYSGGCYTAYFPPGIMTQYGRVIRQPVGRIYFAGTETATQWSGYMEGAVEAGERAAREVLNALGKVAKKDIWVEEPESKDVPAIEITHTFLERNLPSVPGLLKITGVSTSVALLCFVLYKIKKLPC
Excerpt: (§1) in vitro, on the homogeneized brain of rats, by measuring the dose inhibiting by 50% (IC 50) the activity of monoamine oxidase (MAO) by taking phenylethylamine (PEA) as substrate of type B monoamine oxidase (MAO.B) and serotonine (5-HT) as substrate of type A monoamine oxidase (MAO.A), according to the procedure described by M. STROLIN BENEDETTI et al. in: Monoamine oxidase Basic and Clinical Frontiers, publishers K. KAMISO-E. USDIN-T. NAGATSO-Excepta Medica (1982)-page 209);

[2] = target: T2, type B monoamine oxidase (MAO.B) (Rattus norvegicus, UniProt P19643); assay: ex vivo brain MAO.B inhibition after single oral dose in rats, PEA substrate; settings: for inhibition at 5 mg/kg / inhibition at 10 mg/kg / inhibition at 20 mg/kg: rat, po; for inhibition at 5 mg/kg: 5 mg/kg p.o.; for specificity and reversibility / level of activity: in words; for specificity and reversibility: compared with racemic; for level of activity: compared with racemic or dose; for inhibition at 10 mg/kg: 10 mg/kg p.o.; for inhibition at 20 mg/kg: 20 mg/kg p.o.
T2 construct: the brains being removed, weighed, homogeneized; from tissue; host or cells: brain of orally dosed rats, homogenized
T2 sequence (P19643 1-520): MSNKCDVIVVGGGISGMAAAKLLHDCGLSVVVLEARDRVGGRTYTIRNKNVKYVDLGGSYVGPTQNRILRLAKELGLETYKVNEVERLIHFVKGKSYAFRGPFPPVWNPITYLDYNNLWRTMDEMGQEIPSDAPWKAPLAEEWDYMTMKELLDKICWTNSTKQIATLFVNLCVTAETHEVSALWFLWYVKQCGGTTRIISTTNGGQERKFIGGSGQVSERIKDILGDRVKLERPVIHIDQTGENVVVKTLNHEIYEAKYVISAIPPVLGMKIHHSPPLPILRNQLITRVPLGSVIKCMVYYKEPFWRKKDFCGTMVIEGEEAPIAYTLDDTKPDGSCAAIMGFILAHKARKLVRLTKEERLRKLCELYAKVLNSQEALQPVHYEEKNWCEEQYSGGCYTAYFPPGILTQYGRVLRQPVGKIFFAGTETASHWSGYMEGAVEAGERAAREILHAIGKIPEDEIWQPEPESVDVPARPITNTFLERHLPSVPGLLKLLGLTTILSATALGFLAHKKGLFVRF
Description: (§2) ex vivo, on rats to which was administered orally a single dose of the compounds of formula (I) (or their pharmaceutically acceptable salts) or their corresponding racemic of formula (Io), in a 0.5% suspension in methylcellulose, the rats being sacrificed by being beheaded at varying times, the brains being removed, weighed, homogeneized and the determination of the MAOI activity being made by using serotonine and phenylethylamine, according to the procedure described by J. P. KAN and M. STROLIN-BENEDETTI in Life Sciences 26, 2165, (1980).

[3] = oral acute toxicity in mice (Miller and Tainter's method); type: in vivo; settings: mouse, in vivo, mice, oral, read-out: Acute toxicity (mice) LD 50
Excerpt: (§3) The results obtained in the in vitro test are shown in table 1 below and the results obtained in the ex vivo test, as well as the oral acute toxicity in mice evaluated according to MILLER and TAINTER's method [Proc. Soc.

[4] = target: T1, type A monoamine oxidase (MAO.A); assay: ex vivo brain MAO.A inhibition after single oral dose in rats, 5-HT substrate; settings: for inhibition at 10 mg/kg: Table 3, 10 mg/kg p.o.; for inhibition at 20 mg/kg: Table 3, 20 mg/kg p.o.
Description: as §2

[5] = target: T2, type B monoamine oxidase (MAO.B); assay: in vitro MAO.B inhibition on homogenized rat brain, phenylethylamine (PEA) substrate; type: biochemical, rats; settings: Table 1, rat brain homogenate, read-out: MAO.B inhibition effect (P.E.A.) IC 50
Excerpt: as §1

mice = assay: oral acute toxicity in mice (Miller and Tainter's method); type: in vivo; settings: in words
Excerpt: as §3

[6] = Table 3, rats, 30, unit inferred, read-out: % MAO inhibition effect after n hour(s), PEA
[7] = Table 3, rats, 1 hour, read-out: % MAO inhibition effect after n hour(s), PEA
[8] = Table 3, rats, 2 hours, read-out: % MAO inhibition effect after n hour(s), PEA
[9] = Table 3, rats, 4 hours, read-out: % MAO inhibition effect after n hour(s), PEA
[10] = Table 3, rats, 8 hours, read-out: % MAO inhibition effect after n hour(s), PEA
[11] = Table 3, rats, 24 hours, read-out: % MAO inhibition effect after n hour(s), PEA
[12] = Table 3, 5 mg/kg p.o., rats, 30, unit inferred, read-out: % MAO inhibition effect after n hour(s), 5-HT
[13] = Table 3, 5 mg/kg p.o., rats, 1 hour, read-out: % MAO inhibition effect after n hour(s), 5-HT
[14] = Table 3, 5 mg/kg p.o., rats, 2 hours, read-out: % MAO inhibition effect after n hour(s), 5-HT
[15] = Table 3, 5 mg/kg p.o., rats, 4 hours, read-out: % MAO inhibition effect after n hour(s), 5-HT
[16] = Table 3, 5 mg/kg p.o., rats, 8 hours, read-out: % MAO inhibition effect after n hour(s), 5-HT
[17] = Table 3, 5 mg/kg p.o., rats, 24 hours, read-out: % MAO inhibition effect after n hour(s), 5-HT
[18] = rats, 2 hours, read-out: % MAO inhibition effect after n hour(s), 5-HT
[19] = rats, 8 hours, read-out: % MAO inhibition effect after n hour(s), 5-HT
[20] = rats, 24 hours, read-out: % MAO inhibition effect after n hour(s), 5-HT
[21] = Table 2, rats, 1 hour, read-out: % MAO inhibition effect after n hour(s), PEA (IMAO.B)
[22] = Table 2, rats, 2 hours, read-out: % MAO inhibition effect after n hour(s), PEA (IMAO.B)
[23] = Table 2, rats, 4 hours, read-out: % MAO inhibition effect after n hour(s), PEA (IMAO.B)
[24] = Table 2, rats, 8 hours, read-out: % MAO inhibition effect after n hour(s), PEA (IMAO.B)
[25] = Table 2, rats, 24 hours, read-out: % MAO inhibition effect after n hour(s), PEA (IMAO.B)
[26] = Table 2, rats, 48 hours, read-out: % MAO inhibition effect after n hour(s), PEA (IMAO.B)
[27] = Table 2, rats, 72 hours, read-out: % MAO inhibition effect after n hour(s), PEA (IMAO.B)
[28] = Table 2, 5 mg/kg p.o., rats, 1 hour, read-out: % MAO inhibition effect after n hour(s), 5-HT (IMAO.A)
[29] = Table 2, 5 mg/kg p.o., rats, 2 hours, read-out: % MAO inhibition effect after n hour(s), 5-HT (IMAO.A)
[30] = Table 2, 5 mg/kg p.o., rats, 4 hours, read-out: % MAO inhibition effect after n hour(s), 5-HT (IMAO.A)
[31] = Table 2, 5 mg/kg p.o., rats, 8 hours, read-out: % MAO inhibition effect after n hour(s), 5-HT (IMAO.A)
[32] = Table 2, 5 mg/kg p.o., rats, 24 hours, read-out: % MAO inhibition effect after n hour(s), 5-HT (IMAO.A)
[33] = Table 2, 5 mg/kg p.o., rats, 48 hours, read-out: % MAO inhibition effect after n hour(s), 5-HT (IMAO.A)
[34] = Table 2, 5 mg/kg p.o., rats, 72 hours, read-out: % MAO inhibition effect after n hour(s), 5-HT (IMAO.A)

SMILES | IC50 [1] [nM] | inhibition at 5 mg/kg [2, 6] [%] | inhibition at 5 mg/kg [2, 7] [%] | inhibition at 5 mg/kg [2, 8] [%] | inhibition at 5 mg/kg [2, 9] [%] | inhibition at 5 mg/kg [2, 10] [%] | inhibition at 5 mg/kg [2, 11] [%] | LD50 ([3]; Table 3) [mg/kg] | inhibition at 5 mg/kg [4, 12] [%] | inhibition at 5 mg/kg [4, 13] [%] | inhibition at 5 mg/kg [4, 14] [%] | inhibition at 5 mg/kg [4, 15] [%] | inhibition at 5 mg/kg [4, 16] [%] | inhibition at 5 mg/kg [4, 17] [%] | IC50 [5] [nM] | specificity and reversibility [2] | level of activity [2] | active doses relative to lethal 50 doses (mice) | inhibition at 5 mg/kg [2, 21] [%] | inhibition at 5 mg/kg [2, 22] [%] | further results
O=C1OC(CO)CN1c1ccc(OCc2cccc(Cl)c2)cc1 (racemic) [Racemic of (Ia), reference compound] | 600 | 79 | 78 | 79 | 68 | 47 | 1 | > 1000 | 21 | 18 | 20 | 9 | 0 | 2 | 20 | – | – | – | – | – | –
O=C1O[C@H](CO)CN1c1ccc(OCc2cccc(Cl)c2)cc1 [(Ia), [S(+)] 5-hydroxymethyl 3-p-(meta-chlorobenzyloxy)phenyl oxazolidine-2-one] | 9000 | 47 | 47 | 43 | 30 | 5 | -5 | > 1000 | 3 | 3 | 2 | 3 | 0 | -2 | 85 | much greater specificity | activity increases with the dose administered | activities at doses much less than the lethal 50 doses | – | – | inhibition at 10 mg/kg [2, 8]: 66%; inhibition at 10 mg/kg [2, 10]: 36%; inhibition at 10 mg/kg [2, 11]: 6%; inhibition at 20 mg/kg [2, 8]: 77%; inhibition at 20 mg/kg [2, 10]: 50%; inhibition at 20 mg/kg [2, 11]: 5%; inhibition at 10 mg/kg [4, 18]: 5%; inhibition at 10 mg/kg [4, 19]: 1%; inhibition at 10 mg/kg [4, 20]: 0%; inhibition at 20 mg/kg [4, 18]: 7%; inhibition at 20 mg/kg [4, 19]: 3%; inhibition at 20 mg/kg [4, 20]: 0%
CNCC1CN(c2ccc(OCc3cccc(Cl)c3)cc2)C(=O)O1 (racemic) [Racemic of (Ib), reference compound] | 14000 | – | – | – | – | – | – | – | – | – | – | – | – | – | 34 | – | – | – | 84 | 85 | inhibition at 5 mg/kg [2, 23]: 78%; inhibition at 5 mg/kg [2, 24]: 67%; inhibition at 5 mg/kg [2, 25]: 31%; inhibition at 5 mg/kg [2, 26]: 29%; inhibition at 5 mg/kg [2, 27]: 21%; LD50 ([3]; Table 2): > 1000 mg/kg; inhibition at 5 mg/kg [4, 28]: 7%; inhibition at 5 mg/kg [4, 29]: 8%; inhibition at 5 mg/kg [4, 30]: 10%; inhibition at 5 mg/kg [4, 31]: 8%; inhibition at 5 mg/kg [4, 32]: 1%; inhibition at 5 mg/kg [4, 33]: 1%; inhibition at 5 mg/kg [4, 34]: 1%
CNC[C@@H]1CN(c2ccc(OCc3cccc(Cl)c3)cc2)C(=O)O1 [(Ib), [R(+)] 5-N-methylaminomethyl 3-p-(meta-chlorobenzyloxy)phenyl oxazolidine-2-one] | 50000 | – | – | – | – | – | – | – | – | – | – | – | – | – | 30 | much greater specificity and reversibility | level of activity similar to that of its racemic | activities at doses much less than the lethal 50 doses | 74 | 77 | inhibition at 5 mg/kg [2, 23]: 71%; inhibition at 5 mg/kg [2, 24]: 61%; inhibition at 5 mg/kg [2, 25]: 6%; inhibition at 5 mg/kg [2, 26]: 5%; inhibition at 5 mg/kg [2, 27]: 0%; LD50 ([3]; Table 2): > 1000 mg/kg; inhibition at 5 mg/kg [4, 28]: -1%; inhibition at 5 mg/kg [4, 29]: 0%; inhibition at 5 mg/kg [4, 30]: 0%; inhibition at 5 mg/kg [4, 31]: 1%; inhibition at 5 mg/kg [4, 32]: -1%; inhibition at 5 mg/kg [4, 33]: -3%; inhibition at 5 mg/kg [4, 34]: 3%
